Source: PubChem BioAssay AID248 (DTP/NCI, 2004)
Several values for one entry are separate records, joined by “and”; a condition that tells them apart may be missing. Identical values can stand only once. Toxic doses and inconclusive results are not listed. Rule as the data show it: active = T/C of 150% or more; inactive = T/C below 125%.

Tested on: L1210 leukemia ip in BDF1 mice, survival T/C
Experiment: NCI In Vivo Anticancer Drug Screen. Data for tumor model L1210 Leukemia (intraperitoneal) in B6D2F1 (BDF1) mice
Conditions: endpoint: mean survival time, higher = longer survival
Method in brief: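 In this screen, tumor-bearing mice given compound are compared to those given vehicle, and their survival values are reported as a treated-to-control quotient.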

[1] = dose: 100.0 mg/kg/injection, schedule: Q01DX001 (ip), vehicle: saline
[2] = dose: 200.0 mg/kg/injection, schedule: Q01DX001 (ip), vehicle: saline
[3] = dose: 400.0 mg/kg/injection, schedule: Q01DX001 (ip), vehicle: saline
[4] = dose: 50.0 mg/kg/injection, schedule: Q01DX009 (ip), vehicle: saline with Tween-80
[5] = dose: 50.0 mg/kg/injection, schedule: Q04DX003 (ip), vehicle: saline with Tween-80
[6] = dose: 100.0 mg/kg/injection, schedule: Q01DX009 (ip), vehicle: saline with Tween-80
[7] = dose: 100.0 mg/kg/injection, schedule: Q04DX003 (ip), vehicle: saline with Tween-80
[8] = dose: 200.0 mg/kg/injection, schedule: Q04DX003 (ip), vehicle: saline with Tween-80
[9] = dose: 200.0 mg/kg/injection, schedule: Q01DX009 (ip), vehicle: saline with Tween-80
[10] = dose: 400.0 mg/kg/injection, schedule: Q01DX009 (ip), vehicle: saline with Tween-80
[11] = dose: 100.0 mg/kg/injection, schedule: Q04DX003 (ip), vehicle: saline

Measured: T/C

COc1c(C)c2c(c(O)c1C/C=C(\C)CCC(=O)O)C(=O)OC2
inactive: dose: 12.5 mg/kg/injection, schedule: Q01DX001 (ip), vehicle: saline 96 % of control | dose: 25.0 mg/kg/injection, schedule: Q01DX001 (ip), vehicle: saline 100 % of control | dose: 25.0 mg/kg/injection, schedule: Q01DX009 (ip), vehicle: saline 102 % of control | dose: 50.0 mg/kg/injection, schedule: Q01DX001 (ip), vehicle: saline 103 % of control | dose: 50.0 mg/kg/injection, schedule: Q01DX009 (ip), vehicle: saline 98 % of control | [1] 100 % of control | dose: 100.0 mg/kg/injection, schedule: Q01DX009 (ip), vehicle: saline 107 % of control | dose: 100.0 mg/kg/injection, schedule: Q04DX002 (ip), vehicle: Klucel (hydroxypropylcellulose) (HPC) 104 % of control | [2] 100 % of control | dose: 200.0 mg/kg/injection, schedule: Q01DX009 (ip), vehicle: saline 118 % of control | dose: 200.0 mg/kg/injection, schedule: Q04DX002 (ip), vehicle: Klucel (hydroxypropylcellulose) (HPC) 112 % of control | [3] 100 % of control | dose: 400.0 mg/kg/injection, schedule: Q01DX009 (ip), vehicle: saline 124 % of control | dose: 400.0 mg/kg/injection, schedule: Q04DX002 (ip), vehicle: Klucel (hydroxypropylcellulose) (HPC) 112 % of control

O=C(CC(O)(C(F)(F)F)C(F)(F)F)c1cccs1
inactive: [4] 109 % of control | [5] 98 % of control | [6] 102 % of control | [7] 98 % of control | [8] 96 % of control

OC(c1ccccc1)(c1ccccc1)C(F)(F)C(F)(F)C(F)(F)F
inactive: dose: 222.0 mg/kg/injection, schedule: Q01DX Z (ip), vehicle: methylcellulose (MC) 89 % of control | dose: 333.0 mg/kg/injection, schedule: Q01DX Z (ip), vehicle: methylcellulose (MC) 96 % of control

Cc1cc(OC(=O)Nc2c(C)cccc2C)cc(C)c1Cl
inactive: dose: 25.0 mg/kg/injection, schedule: Q01DX001 (ip), vehicle: saline with Tween-80 93 % of control | dose: 25.0 mg/kg/injection, schedule: Q01DX009 (ip), vehicle: saline with Tween-80 111 % of control and 89 % of control | dose: 25.0 mg/kg/injection, schedule: Q04DX003 (ip), vehicle: saline with Tween-80 107 % of control | dose: 50.0 mg/kg/injection, schedule: Q01DX001 (ip), vehicle: saline with Tween-80 88 % of control | [4] 100 % of control and 114 % of control | dose: 50.0 mg/kg/injection, schedule: Q04DX002 (ip), vehicle: saline with Tween-80 94 % of control and 102 % of control | [5] 93 % of control | [7] 91 % of control | [9] 93 % of control | [8] 92 % of control | [10] 93 % of control | dose: 400.0 mg/kg/injection, schedule: Q04DX003 (ip), vehicle: saline with Tween-80 103 % of control

O=C(NC(C(=O)O)c1ccccc1)OCc1ccccc1 (stereo not drawn)
inactive: [6] 111 % of control and 97 % of control | [9] 91 % of control and 92 % of control | [10] 89 % of control and 93 % of control

CN1CCC(=C(C#N)C#N)CC1
inactive: [11] 91 % of control

Brc1ccc2[nH]c3c(c2c1)CCCC3
inactive: [1] 87 % of control | [2] 89 % of control | [3] 98 % of control

O=C(OCc1ccccc1)c1ccc(OCc2ccccc2)cc1
inactive: [11] 94 % of control | dose: 200.0 mg/kg/injection, schedule: Q04DX003 (ip), vehicle: saline 100 % of control | dose: 400.0 mg/kg/injection, schedule: Q04DX003 (ip), vehicle: saline 96 % of control
